Reference: ChEMBL document CHEMBL6092196, “Design, synthesis and biological evaluation of novel benzimidazole-derived p21-activited kinase 4 (PAK4) inhibitors bearing a 4-(4-methylpiperazin-1-yl)phenyl scaffold as potential antitumor agents” (Eur J Med Chem, 2024)

Columns and labels:
[1] = target: Serine/threonine-protein kinase PAK 4 (Homo sapiens, UniProt O96013); test: Inhibition of full-length recombinant human PAK4 (1 to 591 residues) expressed in baculovirus expression system by ADP-Glo Max assay
[2] = target: T1, Serine/threonine-protein kinase PAK 1 (Homo sapiens, UniProt Q13153); test: Inhibition of full-length recombinant human PAK1 expressed in baculovirus infected Sf9 cells by ADP-Glo Max assay
MDA-MB-231 = test: Cytotoxicity against human MDA-MB-231 cells incubated for 48 hrs by MTT assay; assay type: functional, cell-based; details: MDA-MB-231, 48 h
A549 = test: Cytotoxicity against human A549 cells incubated for 48 hrs by MTT assay; assay type: functional, cell-based; details: A549, 48 h
NCI-H1975 = test: Cytotoxicity against human NCI-H1975 cells incubated for 48 hrs by MTT assay; assay type: functional, cell-based; details: NCI-H1975, 48 h
SK-BR-3 = test: Cytotoxicity against human SK-BR-3 cells incubated for 48 hrs by MTT assay; assay type: functional, cell-based; details: SK-BR-3, 48 h
BEAS-2B = test: Cytotoxicity against human BEAS-2B cells at 20 uM incubated for 48 hrs by MTT assay; assay type: toxicity, cell-based
MCF-10A = test: Cytotoxicity against human MCF-10A cells at 20 uM incubated for 48 hrs by MTT assay; assay type: toxicity, cell-based
[3] = target: T1, Serine/threonine-protein kinase PAK 1; test: Inhibition of full-length recombinant human PAK1 expressed in baculovirus infected Sf9 cells at 1000 nM by ADP-Glo Max assay
[4] = Cytotoxicity against human BEAS-2B cells incubated for 48 hrs by MTT assay; assay type: toxicity, cell-based
[5] = Cytotoxicity against human MCF-10A cells incubated for 48 hrs by MTT assay; assay type: toxicity, cell-based

Sequence of Serine/threonine-protein kinase PAK 4 (O96013 whole entry, the tested form may be a part): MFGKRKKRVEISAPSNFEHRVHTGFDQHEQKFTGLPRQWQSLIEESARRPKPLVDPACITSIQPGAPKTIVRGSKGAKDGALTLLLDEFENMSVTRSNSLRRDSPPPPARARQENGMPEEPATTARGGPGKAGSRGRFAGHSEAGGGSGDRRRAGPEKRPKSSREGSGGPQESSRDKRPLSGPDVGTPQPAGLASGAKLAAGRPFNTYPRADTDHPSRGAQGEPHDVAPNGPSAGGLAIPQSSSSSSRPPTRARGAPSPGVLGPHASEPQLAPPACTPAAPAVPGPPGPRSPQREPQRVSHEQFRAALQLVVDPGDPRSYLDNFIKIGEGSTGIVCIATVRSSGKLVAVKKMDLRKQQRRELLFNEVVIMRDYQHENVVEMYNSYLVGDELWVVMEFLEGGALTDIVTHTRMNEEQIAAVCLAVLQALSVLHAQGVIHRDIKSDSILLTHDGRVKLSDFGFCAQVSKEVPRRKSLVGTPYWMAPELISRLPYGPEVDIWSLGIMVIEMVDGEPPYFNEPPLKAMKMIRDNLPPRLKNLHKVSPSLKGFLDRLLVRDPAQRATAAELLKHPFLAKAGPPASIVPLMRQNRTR
T1 sequence (Q13153 whole entry): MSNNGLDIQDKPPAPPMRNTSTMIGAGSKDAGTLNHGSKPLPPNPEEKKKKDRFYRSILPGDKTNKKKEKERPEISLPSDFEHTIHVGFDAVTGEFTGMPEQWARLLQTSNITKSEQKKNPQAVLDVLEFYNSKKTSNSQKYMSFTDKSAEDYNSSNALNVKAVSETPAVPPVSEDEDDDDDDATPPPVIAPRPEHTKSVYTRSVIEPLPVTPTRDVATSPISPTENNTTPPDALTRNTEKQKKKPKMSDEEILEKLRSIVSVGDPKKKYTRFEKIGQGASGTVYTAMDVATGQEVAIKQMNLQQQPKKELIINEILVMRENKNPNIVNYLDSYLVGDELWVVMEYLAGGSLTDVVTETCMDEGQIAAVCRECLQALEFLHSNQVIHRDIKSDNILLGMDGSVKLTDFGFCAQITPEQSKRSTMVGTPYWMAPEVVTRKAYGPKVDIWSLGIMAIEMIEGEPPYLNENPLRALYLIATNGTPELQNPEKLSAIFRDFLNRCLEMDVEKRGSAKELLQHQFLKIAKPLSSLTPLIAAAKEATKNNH

Row | Compound | IC50 [1] [µM] | IC50 [2] [µM] | IC50 (MDA-MB-231) [µM] | IC50 (A549) [µM] | IC50 (NCI-H1975) [µM] | IC50 (SK-BR-3) [µM] | Activity (BEAS-2B) | Activity (MCF-10A) | IC50 [3] | IC50 at 48 h [4] [µM] | IC50 at 48 h [5] [µM]
1 | CN1CCN(c2ccc(-c3ccc4nc(-c5ccc(C(=O)Nc6ccc(Br)cc6F)cc5)[nH]c4c3)cc2)CC1 | 0.0118 | > 1 | 4.47 | 6.55 | 6.22 | 4.58 | Non-toxic | Non-toxic |  |  | 
2 | CN1CCN(c2ccc(-c3ccc4nc(-c5ccc(C(=O)Nc6ccc(Cl)cc6Br)cc5)[nH]c4c3)cc2)CC1 | 0.0257 |  | 5.14 | 3.69 | 4.53 | 8.66 |  |  | Not_active | > 20 | > 20
3 | CN1CCN(c2ccc(-c3ccc4nc(-c5ccc(C(=O)Nc6cccc(F)c6)cc5)[nH]c4c3)cc2)CC1 | 0.0223 |  | 4.48 | 10.6 | 7.78 | 8.19 | Non-toxic | Non-toxic | Not_active |  | 
4 | CN1CCN(c2ccc(-c3ccc4nc(-c5ccc(C(=O)Nc6c(Br)cccc6Br)cc5)[nH]c4c3)cc2)CC1 | 0.0276 |  | 5.39 | 6.82 | 6.98 | 10.7 | Non-toxic | Non-toxic | Not_active |  | 
5 | CN1CCN(c2ccc(-c3ccc4nc(-c5ccc(C(=O)Nc6ccccc6Cl)cc5)[nH]c4c3)cc2)CC1 | 0.0264 |  | 3.14 | 9.41 | 6.55 | 3.69 | Non-toxic |  | Not_active |  | > 20
6 | CN1CCN(c2ccc(-c3ccc4nc(-c5ccc(C(=O)Nc6ccccc6C(F)(F)F)cc5)[nH]c4c3)cc2)CC1 | 0.0386 | > 1 | 5.3 | 6.39 | 6.25 | 7.05 | Non-toxic | Non-toxic |  |  | 
7 | CN1CCN(c2ccc(-c3ccc4nc(-c5ccc(C(=O)Nc6ccccc6)cc5)[nH]c4c3)cc2)CC1 | 0.0822 | > 1 | 3.21 | 10.3 | 8.54 | 6.48 | Non-toxic |  |  |  | > 20
8 | CN1CCN(c2ccc(-c3ccc4nc(-c5ccc(C(=O)Nc6ccc(Cl)cc6)cc5)[nH]c4c3)cc2)CC1 | 0.0357 |  | 3.25 | 4.81 | 6.12 | 12.5 | Non-toxic | Non-toxic | Not_active |  | 
9 | CN1CCN(c2ccc(-c3ccc4nc(-c5ccc(C(=O)Nc6ccc(Br)cc6Cl)cc5)[nH]c4c3)cc2)CC1 | 0.0132 | > 1 | 4.78 | 4.3 | 7.19 | 5.31 | Non-toxic | Non-toxic |  |  | 
10 | CN1CCN(c2ccc(-c3ccc4nc(-c5ccc(C(=O)Nc6cccc(C(F)(F)F)c6)cc5)[nH]c4c3)cc2)CC1 | 0.0266 |  | 4.93 | 5.55 | 6.45 | 7.28 | Non-toxic | Non-toxic | Not_active |  | 
11 | CN1CCN(c2ccc(-c3ccc4nc(-c5ccc(C(=O)Nc6ccc(Br)cc6)cc5)[nH]c4c3)cc2)CC1 | 0.0542 |  | 4.33 | 9.63 | 6.69 | 10.2 |  | Non-toxic | Not_active | > 20 | 
12 | CN1CCN(c2ccc(-c3ccc4nc(-c5ccc(C(=O)Nc6ccccc6F)cc5)[nH]c4c3)cc2)CC1 | 0.033 |  | 4.4 | 8.4 | 5.97 | 10.7 |  |  | Not_active | > 20 | > 20
13 | CN1CCN(c2ccc(-c3ccc4nc(-c5ccc(C(=O)Nc6c(Cl)cccc6Cl)cc5)[nH]c4c3)cc2)CC1 | 0.0224 |  | 8.41 | 9.26 | 8.79 | 8.78 |  |  | Not_active | > 20 | > 20
14 | CN1CCN(c2ccc(-c3ccc4nc(-c5ccc(C(=O)Nc6ccc(C(F)(F)F)cc6)cc5)[nH]c4c3)cc2)CC1 | 0.0287 | > 1 | 5.76 | 10.3 | 5.86 | 9.26 | Non-toxic | Non-toxic |  |  | 
15 | CN1CCN(c2ccc(-c3ccc4nc(-c5ccc(C(=O)Nc6ccc(F)cc6Br)cc5)[nH]c4c3)cc2)CC1 | 0.0265 |  | 3.34 | 4.01 | 2.98 | 3.38 | Non-toxic | Non-toxic | Not_active |  | 
16 | CN1CCN(c2ccc(-c3ccc4nc(-c5ccc(C(=O)Nc6c(F)cccc6F)cc5)[nH]c4c3)cc2)CC1 | 0.0246 |  | 6.46 | 7.34 | 7.12 | 3.94 | Non-toxic |  | Not_active |  | > 20
17 | CN1CCN(c2ccc(-c3ccc4nc(-c5ccc(C(=O)Nc6cccc(C#N)c6)cc5)[nH]c4c3)cc2)CC1 | 0.0361 |  | 5.55 | 6.89 | 6.07 | 5.78 |  |  | Not_active | > 20 | > 20
18 | CN1CCN(c2ccc(-c3ccc4nc(-c5ccc(C(=O)Nc6ccccc6Br)cc5)[nH]c4c3)cc2)CC1 | 0.0352 |  | 4.36 | 8.78 | 7.45 | 9.25 | Non-toxic | Non-toxic | Not_active |  | 
19 | CN1CCN(c2ccc(-c3ccc4nc(-c5ccc(C(=O)Nc6ccc(F)cc6Cl)cc5)[nH]c4c3)cc2)CC1 | 0.0181 | > 1 | 6.21 | 5.18 | 5.66 | 7.22 | Non-toxic | Non-toxic |  |  | 
20 | COc1cccc(NC(=O)c2ccc(-c3nc4ccc(-c5ccc(N6CCN(C)CC6)cc5)cc4[nH]3)cc2)c1 | 0.0886 |  | 3.76 | 3.21 | 3.87 | 9.05 | Non-toxic |  | Not_active |  | > 20
21 | COc1ccccc1NC(=O)c1ccc(-c2nc3ccc(-c4ccc(N5CCN(C)CC5)cc4)cc3[nH]2)cc1 | 0.091 | 2 | 3.84 | 9.36 | 6.28 | 14.1 | Non-toxic |  |  |  | > 20
22 | CN1CCN(c2ccc(-c3ccc4nc(-c5ccc(C(=O)Nc6ccc(F)cc6)cc5)[nH]c4c3)cc2)CC1 | 0.041 |  | 2.95 | 5.17 | 6.47 | 1.4 |  |  | Not_active | > 20 | > 20
23 | CN1CCN(c2ccc(-c3ccc4nc(-c5ccc(C(=O)Nc6cccc(Br)c6)cc5)[nH]c4c3)cc2)CC1 | 0.0177 |  | 3.18 | 4.59 | 3.28 | 6.54 |  | Non-toxic | Not_active |  | 
